Legend:
[1] = Lipophilicity: transfer potential at ITIES (water/1,6-dichlorohexane) by DPV; assay type: physicochemical; conditions: aqueous phase C=0.32 mM to 1,6-dichlorohexane, physiological pH
Description: In an embodiment, and as an example, the AntiOxBEN1 and AntiOxBEN2 lipophilic properties were evaluated using differential pulse voltammetry (DPV) at physiological pH. The used technique is often used to mimic the transfer of ionic drugs through biological membranes as the process occurs at the interface between two immiscible electrolyte solutions (ITIES). The transfer potential (Etr) at which the ionic drug, initially present in the aqueous phase (C=0.32 mM), is transferred to 1,6-dichlorohexane (DCH) phase is measured by differential pulse voltammetry (DPV). In the ITIES model, the transfer potential (Etr) becomes less positive with the increasing of the drug lipophilic character.
In an embodiment, the electrochemical analytical data was obtained using a computer controlled potentiostat Autolab PGSTAT302N (Metrohm Autolab, Utrecht, Netherlands). Generally, cyclic voltammetry (CV) data was acquired at a scan rate of 50 mVs^−1. Differential pulse voltammetry (DPV) results were acquired at a step potential of 4 mV, pulse amplitude of 50 mV and scan rate of 8 mVs^−1. The electrochemical signals were monitored by the General Purpose Electrochemical System (GPES) version 4.9, software package. […]

[2] = tested on: mitochondrial permeability transition pore (mPTP); assay: Mitochondrial swelling / mitochondrial permeability transition pore opening; assay type: biochemical, rat; conditions: 2.5, 5, 10 μM pre-incubated 5 min before Ca2+
Description: In an embodiment, and as an example, the effects of some AntiOxBENs on mitochondrial permeability transition pore (mPTP) opening were evaluated. In general, the tested AntiOxBENs had no effect per se on mPTP opening for all tested concentrations.
Increasing concentrations of AntiOxBENs (2.5-10 μM) were added to the reaction medium (200 mM sucrose, 1 mM KH2PO4, 10 mM Tris (pH 7.4), 5 mM succinate and 10 μM EGTA supplemented with 1.5 μM rotenone), in the presence of RLM (1 mg), and allowed to incubate for a 5 min period before the assay. The experiments were initiated by the addition of a suitable concentration of Ca^2+ (15-50 μM), titrated every day. […] The reaction was stirred continuously and the temperature maintained at 37° C.

Row | Structure (SMILES) | transfer potential (Etr) [1] [V] | concentration-dependent inhibition of calcium-dependent mPTP opening [2]
1 | O=C(NCCCCCC[P+](c1ccccc1)(c1ccccc1)c1ccccc1)c1ccc(O)c(O)c1.[Br-] [AntiOxBEN1, 6-(3,4-dihydroxybenzamido)hexyltriphenylphosphonium bromide] | 0.405 | –
2 | O=C(NCCCCCC[P+](c1ccccc1)(c1ccccc1)c1ccccc1)c1cc(O)c(O)c(O)c1.[Br-] [AntiOxBEN2, 6-(3,4,5-trihydroxybenzamido)hexyltriphenylphosphonium bromide] | 0.495 | –
3 | O=C(CCCCC[P+](c1ccccc1)(c1ccccc1)c1ccccc1)NCCCCCCNC(=O)c1cc(O)c(O)c(O)c1.[Br-] [AntiOxBEN3, [5-(6-(3,4,5-trihydroxybenzamido)hexylamino)carbonylpentyl]triphenylphosphonium bromide] | – | caused a concentration-dependent inhibition
